Experimental data published in patent US20250188080A1, “IMIDAZOLONYLQUINOLINE COMPOUNDS AND THERAPEUTIC USES THEREOF” (Merck Patent GmbH, priority 2019, published 2025).
Converted amounts (≈) assume the structure as drawn. Where two headings read alike, the source gives them in different places.

Assays:
[1] = Solubility in biological buffer solutions; assay type: physicochemical
Description: Levels of dissolved compound/form were analysed by HPLC, with the following conditions: • Column: Chromolith RP-18e 100-3 mm • Solvent A: water/formic acid (999:1; v/v) • Solvent B: acetonitrile/formic acid (999:1; v/v) • Injection volume: 5 μL • Column temperature: 37° C. • HPLC-Gradient: […]

[2] = Microsomal stability (intrinsic clearance), human; assay type: in vitro ADME; design: microsomal CLint: dose or concentration left out as unconfirmed; conditions: for microsomal CLint: liver microsomes, pH 7.4
Description: A microsomal stability assay is used to measure in vitro clearance (Clint). The assay involves measuring the rate of disappearance of a compound due to its intrinsic attitude to be metabolized (“intrinsic” meaning that the disappearance is not affected by other properties like permeability, binding etc. that play a role when quantifying in vivo clearance). The microsomal stability (intrinsic clearance, Clint) and, thus, metabolic stability is generally given as μl/min/mg protein. It can be visualized as the volume of solution that 1 mg of microsomes is able to clear of the compound in one minute.
A Tecan Genesis workstation (RSP 150/8) was used for to perform the microsomal incubations. Analysis was carried out using a Waters ACQUITY UPLC system coupled to an ABSciex API3000 mass spectrometer. Data analysis was performed using Assay Explorer (Symyx).
• Potassium phosphate buffer: 0.05 M potassium phosphate buffer pH 7.4 containing 1 mM MgCl2 • NADPH (nicotinamide adenine dinucleotide phosphate): 22.5 mg NADPH-Na4 in 1.8 ml potassium phosphate buffer • Acetonitrile: 50 Vol % acetonitrile (1 volume acetonitrile, 1 volume water) • DMSO: 20 Vol % DMSO in water • Stock solution of 20 mg/ml human or mouse liver microsomes (protein)/ml in phosphate buffer • Stock solution of 10 mM compound in 100% DMSO
Dilution of test compounds was done in 2 steps starting from a 10 mM stock solution of the respective compound in 100% DMSO. First 4 μl stock solution was added to 196 μl of 20 Vol % DMSO. In a second step, 10 μl of the first dilution were added to 1590 μl potassium phosphate buffer to achieve a final concentration of 1.25 μM in the final compound dilution. Thus, the amount of organic solvent in the assay was kept to a minimum (<1%).
The human or mouse liver microsome (protein) solution to be used in the assay was prepared by mixing 750 μl stock solution (20 mg/ml) and 2250 μl potassium phosphate buffer to a final concentration of 5 mg/ml.
Incubation was carried out on a 96 deep well incubation plate. […]

DNA-PK protein complex = DNA-PK protein complex (Homo sapiens, UniProt P78527); experiment: DNA-PK assay (HTRF); assay type: biochemical
Description: The kinase assay was performed as HTRF® based 384-well assay. In a first step DNA-PK protein complex was incubated with or without test compound for 15 min at 22° C. After addition of the STK-substrate 1-biotin (Cisbio), Mg-ATP, DNA and staurosporine the reaction mixture was incubated for 60-80 min (depending on activity of DNA-PK protein complex) at 22° C. An Echo 555 (Labcyte) was used for dispensing of compound solutions. The assay buffer consisted of 25 mM HEPES PH 7.4, 11 mM MgCl2, 80 mM KCl, 0.45 mM EDTA, and 0.5 mM EGTA, and contained 1 mM dithiothreitol (DTT), 0.17% BSA, and 0.01% Tween® 20. The pharmacologically relevant volume was 5 μl. The final concentrations in the assay during incubation of the reaction mixture were 50-100 ng/well DNA-PK protein complex (depending on activity of DNA-PK protein complex), 1 μM STK-substrate 1-biotin, 10 μM Mg-ATP, 80 ng/well DNA from calf thymus, and 1 μM staurosporine. The enzymatic reaction was stopped by addition of EDTA. The generation of phosphorylated STK-substrate 1-biotin as result of the DNA-PK mediated reaction was detected via a specific anti-phospho STK-antibody (Cisbio) labeled with Europium (Eu) as donor and streptavidin labeled with XL665 (Cisbio) as acceptor allowing FRET. For this purpose, 4 μl of antibody- and streptavidin-containing stop solution (12.5 mM HEPES pH 8.0, 125 mM EDTA, 30 mM sodium chloride, 300 mM potassium fluoride, 0.006% Tween-20, 0.005% Brij® 35, 0.179 nM anti-phospho-STK antibody, 160 nM Streptavidin-XL665) were added to the reaction mixture. Following signal development for 1 h the plates were analyzed on a Rubystar or Pherastar microplate reader (BMG Labtech). The amount of phosphorylated substrate was directly proportional to the ratio of fluorescence units (excitation wavelength 337 nm) at the emission wavelengths 665 nm (Phosphopeptide-sensitive wavelength/emission of XL665) to the units at 620 nm (reference wavelength Europium). IC50-values were calculated using Genedata Screener® software. […]

[3] = FaSSIF, pH 6.5, fassif, FaSSiF, pH 6.5, read-out: Solubility FaSSiF, pH 6.5
[4] = FeSSIF, pH 5, fessif, FeSSiF, pH 5.0, read-out: Solubility FeSSiF, pH 5.0
[5] = PBS, pH 7.4, aqueous buffer, PBS, pH 7.4, read-out: Solubility PBS, pH 7.4

| Structure (SMILES) | solubility [1, 3] [µg/mL] | solubility [1, 4] [µg/mL] | solubility [1, 5] [µg/mL] | microsomal CLint [2] [µL/min/mg] | IC50 (DNA-PK protein complex) [nM] | Solubility FaSSiF, pH 6.5 ([1]; FaSSiF, pH 6.5) [μg/ml] | Solubility FeSSiF, pH 5.0 ([1]; FeSSiF, pH 5.0) [μg/ml] | Solubility PBS, pH 7.4 ([1]; PBS, pH 7.4) [μg/ml] | CLint (human) ([2]; human microsomes) [μl/min/mg protein] |
| --- | --- | --- | --- | --- | --- | --- | --- | --- | --- |
| COc1cc2ncc3c(c2cc1-c1cn(C)nc1C)n(-c1c(F)cncc1OC)c(=O)n3C (single isomer, unassigned) [Compound 1, 8-(1,3-Dimethyl-1H-pyrazol-4-yl)-1-(Sa)-(3-fluoro-5-methoxy-pyridin-4-yl)-7-methoxy-3-methyl-1,3-dihydro-imidazo[4,5-c]quinolin-2-one] | 242 (≈ 540 µM) | 731 (≈ 1630 µM) | ~100 (≈ 223 µM) | < 10 | 600 |  |  |  |  |
| COc1cc2ncc3c(c2cc1-c1cn(C)nc1C)n(-c1c(F)cncc1OC)c(=O)n3C (single isomer, unassigned) [Compound 2, 8-(1,3-Dimethyl-1H-pyrazol-4-yl)-1-(Ra)-(3-fluoro-5-methoxy-pyridin-4-yl)-7-methoxy-3-methyl-1,3-dihydro-imidazo[4,5-c]quinolin-2-one] |  |  |  |  | 1290 | 216 | ~800 | ~100 | < 10 |
| COc1cc2ncc3c(c2cc1-c1cn(C)nc1C)n(-c1c(F)cncc1OC)c(=O)n3C [Compound Y, 8-(1,3-dimethyl-1H-pyrazol-4-yl)-1-(3-fluoro-5-methoxypyridin-4-yl)-7-methoxy-3-methyl-1,3-dihydroimidazo[4,5-c]quinolin-2-one, reference compound] | 52 (≈ 116 µM) | 201 (≈ 448 µM) | 19 (≈ 42.4 µM) | 19 | 980 |  |  |  |  |
